Measured values: patent publication US20100105103A1, “ALCOHOL TOLERANT ESCHERICHIA COLI AND METHODS OF PREPARATION THEREOF” (NATIONAL TAIWAN UNIVERSITY, priority 2008, published 2010)

Legend:
[1] = tested on: E. coli wild-type strain BW25113; conditions: wild type E. coli BW25113, LB medium, OD600
Description: E. coli wild-type strain BW25113 was cultured overnight and then inoculated into a fresh LB medium containing 0-10% (v/v) of 1-butanol. Cells were cultivated with shaking and the optical density at 600 nm was measured every 15 minutes.

[2] = tested on: E. coli JH016 (potG- mutant overexpressing Hmp); assay: Growth curve of JH016 strain with various concentrations of alcohols (OD595); assay type: cell-based, Escherichia coli; conditions: for alcohol concentration at which growth of JH016 was inhibited: JH016, OD595
Description: (§1) After 2 h of induction, the cultures were diluted to 0.35 OD595 in a fresh LB medium supplemented with kanamycin and 50 μg/ml of chloraphenicol, with the addition of 0-18% ethanol, 0-5% 1-propanol, 0-5% iso-propanol, 0-7% 1-butanol, and 0-7% iso-butanol in triplicate.
(§2) Growth of JH016 was inhibited by 1-butanol at concentrations at least 2.5% (v/v), isobutanol at least 4%, 1-propanol at least 5%, isopropanol at least 5%, or ethanol at least 10%. And the growth of JH017 was inhibited by 1-butanol at concentrations at least 2% (v/v), isobutanol at least 3.5%, 1-propanol at least 5%, isopropanol at least 5%, or ethanol at least 12%. The abovementioned concentration of alcohol would for sure inhibit the growth of wild type E. coli.

[3] = tested on: E. coli JH007 (ydhF- mutant overexpressing PhoH); assay: Growth curve of JH007 strain with various concentrations of alcohols (OD595); assay type: cell-based, Escherichia coli; conditions: for alcohol concentration at which growth of JH007 was inhibited: JH007, IPTG-induced, LB medium, 37° C., OD595
Description: as §1
Referring to FIG. 7, cell growth condition of JH007 strain was monitored with OD595 with the changes of cell turbidities.

[4] = tested on: wild type E. coli; conditions: conventional fermentation process; cited from earlier work
[5] = tested on: E. coli JH007; conditions: JH007, 2% v/v 1-butanol, 4 h, IPTG-induced vs uninduced
Description: These 18 strains were cultivated overnight then inoculated into LB media supplemented with 30 μg/ml of kanamycin and 50 μg/ml of chloraphenicol. IPTG were added into the media at the final concentration of 0.1 mM. […] Cells were incubated at 37° C. with shaking and the optical density was measured at the beginning and after 4 h. The survival rates were calculated using the following formula.
Survival rate=difference of OD595 between mutants with IPTG induced (4 h-0 h)/difference of OD595 between mutants without IPTG induced (4 h-0 h)×100%

[6] = tested on: E. coli JH017 (potG- mutant overexpressing YqhD); assay: Growth curve of JH017 strain with various concentrations of alcohols (OD595); assay type: cell-based, Escherichia coli
Description: as §1, §2

1-butanol
concentration of 1-butanol at which growth was almost completely inhibited [1]: ≥ 1.5 % (v/v) | alcohol concentration at which growth of JH016 was inhibited [2]: at least 2.5 % (v/v) | tolerance of 1-butanol concentration (up to) ([3]; JH007): up to 5 % (v/v) | alcohol concentration at which growth of JH007 was inhibited [3]: at least 5 % (v/v) | concentration of 1-butanol at which growth was inhibited [4]: 1% | 1-butanol tolerance (survival rate) relative to control [5]: 5.5 fold | alcohol concentration at which growth of JH017 was inhibited [6]: at least 2 % (v/v)

CCCO [1-propanol]
alcohol concentration at which growth of JH007 was inhibited [3]: at least 6 % (v/v)

CCO [ethanol]
tolerance of ethanol concentration (up to) ([2]; JH016): up to 12 % (v/v) | alcohol concentration at which growth of JH016 was inhibited [2]: at least 10 % (v/v) | alcohol concentration at which growth of JH017 was inhibited [6]: at least 12 % (v/v)

CC(C)CO [isobutanol]
alcohol concentration at which growth of JH016 was inhibited [2]: at least 4 % (v/v) | alcohol concentration at which growth of JH007 was inhibited [3]: at least 3.5 % (v/v) | alcohol concentration at which growth of JH017 was inhibited [6]: at least 3.5 % (v/v)
